Columns and labels:
PC9 cell line = test: Cellular anti-proliferative assay of VPS34 inhibitors in combination with a second therapeutic agent (Cell Titer Glo, 72 hrs); assay type: cell-based, human
Protocol: (§1) Example 57: Cellular Assay for Anti-proliferative Activity of VPS34 Inhibitors in Combination with a Second Therapeutic Agent
(§2) Cells were plated in 25 μl of media in 384 well plates at 1,000 cells per well (A431, PC9, and […] cell lines), 1,500 cells per well (NCI-H1975) or 2,000 cells per well (NCI-H1650). The plates were incubated for 24 hrs at 37° C., 6% CO2. The test compounds (see Table 38 below) were diluted serially, and 62.5 nL of each compound solution (or DMSO, if it is a single agent experiment) is added so the total added to the cells is 125 nL. Cell plates were incubated for 72 hrs at 37° C., 6% CO2. Cell Titer Glo reagent (Promega) was added. The plates were then incubated for 10 minutes at room temperature before luminescence was read on a plate reader such as the Pherastar Plus, Pherastar FS, or LEADSeeker imaging system.
(§3) Bliss antagonism was defined similarly.
(§4) Bliss dependence was defined as the percent cell survival at a certain dose combination divided by the percent cell survival predicted by Bliss independence. More specifically, the Bliss dependence is vAB/(vA*vB), where vAB is the viability with drug A and drug B added, while vA and vB are the viabilities with each drug alone. The dose for the combination used in this study is the inflection point for each drug alone.
(§5) Another way to evaluate additivity is through consideration of Loewe additivity. A difference between Bliss independence and Loewe additivity evaluations of drug combination data is that Bliss independence evaluates whether two drugs interact at all (the null hypothesis is that the mechanisms are entirely independent) and Loewe additivity evaluates whether two drugs interact in an additive fashion (the null hypothesis is that the two drugs work by identical mechanisms). For Bliss independence, the boundary between additivity and synergy must be measured. For Loewe additivity, this boundary is assumed to be at a value of 1. Thus, Bliss independence provides a boundary between antagonism and synergy or additivity. Loewe additivity provides a boundary between synergy and independence or antagonism.
(§6) Synergy can also be measured by nonlinear blending synergy. Nonlinear blending synergy [Peterson, J. J. and Novik, S. J. J Recept Signal Transduct Res, 27, 12-146 (2007))] is found by considering the percent cell death values along the nonlinear blending plot. If the maximum cell death occurs between the endpoints, then the blending synergy is the difference between the maximum cell death for the combined drugs and the maximum cell death for the either drug alone.
(§7) A derivative of Loewe additivity is the Combination Index, I (see Chou T. C., Talalay P. Adv. Enzyme Reg., 22: 27-55 (1984) and Berenbaum M. C. J. Theor. Biol., 114:413-431 (1985)). This measure is based on the shape of the isobologram which represents 50% viability (for a review of the use of isobolograms in analysis of drug combinations, see Tallarida, R. J. J. Pharm. Exp. Therap. 319:1-7 (2006)).
(§8) The results in Table 38A were summarized by categorizing the Combination Index, I. A mean Combination Index in the range (0.7-1.3) is classified as Additivity. A mean in the range (0-0.7) is classified as Synergy. A mean in the range (1.3-2) is classified as Subadditivity. A mean greater than 2 is classified as Antagonism. […] In this case, the Nonlinear Blending Synergy is used instead to generate a call (Table 38B). The categorization is similar to the Combination Index. A Nonlinear Blending Synergy within the range (−20, 20) is classified as Additive. A value below −20 is classified as Antagonism, while a value above 20 is classified as Synergy.

NCI-H1975 cell line = test: as above; assay type: cell-based, human
Protocol: as §1, §2, §3, §4, §5, §6, §7, §8

NCI-H1650 cell line = test: as above; assay type: cell-based, human; conditions: NCI H-1650; for Blending Synergy: in combination with Erlotinib (Compound Y)
Protocol: as §1, §2, §3, §4, §5, §6, §7, §8

human VPS34 = human VPS34 (Homo sapiens (Human), UniProt Q8NEB9); test: Human VPS34 enzyme assay (Adapta TR-FRET ADP detection); assay type: biochemical; conditions: IC50 range class
human VPS34, sequence (Q8NEB9 whole entry): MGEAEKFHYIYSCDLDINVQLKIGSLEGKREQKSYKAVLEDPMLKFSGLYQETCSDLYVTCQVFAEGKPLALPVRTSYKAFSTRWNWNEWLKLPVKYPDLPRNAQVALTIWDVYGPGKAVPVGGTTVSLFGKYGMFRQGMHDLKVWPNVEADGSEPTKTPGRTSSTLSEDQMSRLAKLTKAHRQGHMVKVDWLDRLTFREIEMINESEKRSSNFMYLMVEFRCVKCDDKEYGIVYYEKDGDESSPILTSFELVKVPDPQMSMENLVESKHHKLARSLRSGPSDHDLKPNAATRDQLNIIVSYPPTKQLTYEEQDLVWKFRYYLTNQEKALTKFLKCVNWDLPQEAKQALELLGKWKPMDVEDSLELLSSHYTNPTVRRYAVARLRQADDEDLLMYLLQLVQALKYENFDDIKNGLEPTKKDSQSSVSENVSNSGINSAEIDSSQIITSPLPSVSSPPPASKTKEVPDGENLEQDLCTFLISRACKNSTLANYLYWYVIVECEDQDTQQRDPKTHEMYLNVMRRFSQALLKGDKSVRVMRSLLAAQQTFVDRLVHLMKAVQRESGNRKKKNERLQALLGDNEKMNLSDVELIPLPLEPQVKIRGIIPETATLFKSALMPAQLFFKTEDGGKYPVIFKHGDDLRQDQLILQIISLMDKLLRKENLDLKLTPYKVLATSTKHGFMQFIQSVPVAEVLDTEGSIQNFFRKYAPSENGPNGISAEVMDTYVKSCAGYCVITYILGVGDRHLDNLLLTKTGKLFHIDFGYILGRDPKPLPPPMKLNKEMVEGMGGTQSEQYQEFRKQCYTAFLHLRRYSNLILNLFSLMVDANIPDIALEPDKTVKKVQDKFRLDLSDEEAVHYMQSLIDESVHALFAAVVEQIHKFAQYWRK

A431 cell line = test: Cellular anti-proliferative assay of VPS34 inhibitors in combination with a second therapeutic agent (Cell Titer Glo, 72 hrs); assay type: cell-based
Protocol: as §1, §2, §3, §4, §5, §6, §7, §8

[1] = in combination with AZD9291 (Compound Y)
[2] = in combination with AZD9291, call from Combination Index
[3] = in combination with Afatinib (Compound Y)
[4] = in combination with Afatinib, call from Combination Index
[5] = in combination with CO-1686 (Compound Y)
[6] = in combination with CO-1686, call from Combination Index
[7] = in combination with Erlotinib (Compound Y)
[8] = in combination with Erlotinib, call from Combination Index

| IC50 (human VPS34) [nM] | SMILES | Combination Index (PC9 cell line; [3]) | Meaning (PC9 cell line; [4]) | Combination Index (PC9 cell line; [7]) | Meaning (PC9 cell line; [8]) | Combination Index (NCI-H1975 cell line; [3]) | Combination Index (NCI-H1650 cell line; [3]) | Blending Synergy (NCI-H1650 cell line) | Combination Index (A431 cell line; [3]) | Meaning (A431 cell line; [4]) | Combination Index (A431 cell line; [7]) | Meaning (A431 cell line; [8]) | other results |
| --- | --- | --- | --- | --- | --- | --- | --- | --- | --- | --- | --- | --- | --- |
| < 10 | Cc1ncc(-c2ccnc(Nc3ccncn3)c2)cc1NS(=O)(=O)N(C)C [Compound I-217, N,N-dimethyl-N′-[6-methyl-2′-(pyrimidin-4-ylamino)-3,4′-bipyridin-5-yl]sulfuric diamide] | 0.97 | Additivity (A mean Combination Index in the range (0.7-1.3) is classified as Additivity) | 0.87 | Additivity (A mean Combination Index in the range (0.7-1.3) is classified as Additivity) | 0.52 | 0.31 | 28.65 | 0.36 | Synergy (A mean in the range (0-0.7) is classified as Synergy) | 0.46 | Synergy (A mean in the range (0-0.7) is classified as Synergy) |  |
| < 10 | CC(=O)Nc1cc(-c2cnc(C)c(NS(=O)(=O)N(C)C)c2)ccn1 [Compound I-32, N-{5-[(dimethylsulfamoyl)amino]-6-methyl-3,4′-bipyridin-2′-yl}acetamide] | 0.79 | Additivity (A mean Combination Index in the range (0.7-1.3) is classified as Additivity) | 0.78 | Additivity (A mean Combination Index in the range (0.7-1.3) is classified as Additivity) | 0.66 | 0.40 | 22.29 | 0.25 | Synergy (A mean in the range (0-0.7) is classified as Synergy) | 0.73 | Additivity (A mean Combination Index in the range (0.7-1.3) is classified as Additivity) |  |

| SMILES | IC50 (human VPS34) [nM] | Combination Index (PC9 cell line; [3]) | Meaning (PC9 cell line; [4]) | Combination Index (PC9 cell line; [7]) | Meaning (PC9 cell line; [8]) | Combination Index (NCI-H1975 cell line; [3]) | Combination Index (NCI-H1650 cell line; [3]) | Blending Synergy (NCI-H1650 cell line) | Combination Index (A431 cell line; [3]) | Meaning (A431 cell line; [4]) | Combination Index (A431 cell line; [7]) | Meaning (A431 cell line; [8]) | other results |
| --- | --- | --- | --- | --- | --- | --- | --- | --- | --- | --- | --- | --- | --- |
| Cc1nccc(Nc2cc(-c3cnc(Cl)c(NS(=O)(=O)c4ccc(F)cc4F)c3C)ccn2)n1 [Compound I-299, N-{6-chloro-4-methyl-2′-[(2-methylpyrimidin-4-yl)amino]-3,4′-bipyridin-5-yl}-2,4-difluorobenzenesulfonamide] | 10 to 50 | 1.37 | Subadditivity (A mean in the range (1.3-2) is classified as Subadditivity) | 1.18 | Additivity (A mean Combination Index in the range (0.7-1.3) is classified as Additivity) | 0.68 | 0.47 | 26.93 | 1.01 | Additivity (A mean Combination Index in the range (0.7-1.3) is classified as Additivity) | 1.01 | Additivity (A mean Combination Index in the range (0.7-1.3) is classified as Additivity) | Combination Index (PC9 cell line; [1]): 1.17; Meaning (PC9 cell line; [2]): Additivity (A mean Combination Index in the range (0.7-1.3) is classified as Additivity); Combination Index (PC9 cell line; [5]): 1.00; Meaning (PC9 cell line; [6]): Additivity (A mean Combination Index in the range (0.7-1.3) is classified as Additivity); Combination Index (NCI-H1975 cell line; [1]): 0.54; Combination Index (NCI-H1975 cell line; [5]): 0.72; Combination Index (NCI-H1650 cell line; [1]): 0.87; Combination Index (NCI-H1650 cell line; [5]): 0.43; Combination Index (A431 cell line; [1]): 1.00; Meaning (A431 cell line; [2]): Additivity (A mean Combination Index in the range (0.7-1.3) is classified as Additivity); Combination Index (A431 cell line; [5]): 1.02; Meaning (A431 cell line; [6]): Additivity (A mean Combination Index in the range (0.7-1.3) is classified as Additivity) |

— patent publication US9751854B2 (Millennium Pharmaceuticals, Inc., priority 2014, dated 2017)
